Data reported in PMC10949195, “Exponential Combination of a and e/g Intracellular Peptide Libraries Identifies a Selective ATF3 Inhibitor” (ACS Chemical Biology, 2024).

Tests used:
[1] = CD spectra of peptide in isolation (helicity, 222/208 ratio); format: physicochemical; settings: 20 °C, 150 μM total peptide, pH 7.0
Description: (§1) ATF3, ATF3W_a, and ATF3W_eg and combined hit sequence ATF3W_aeg were synthesized using solid phase peptide synthesis, purified by RP-HPLC, and verified for correct mass using ESI-MS (Figure S3), after which circular dichroism (CD) was used to characterize both ATF3 and antagonist peptides for helicity and interactions as homodimers, as well as heterodimers with the ATF3 target. Global secondary analysis of both homodimeric and heterodimeric systems was carried out at a total peptide concentration of 150 μM to keep equimolar concentrations of each component helix. The 222/208 ratio was used to provide evidence on whether the helices were likely to be monomeric or adopt quaternary structure.[13] […] Furthermore, incubation of ATF3 with ATF3W_aeg elicited a significant conformational change in the sample relative to the average of the component peptides (Figure 6d black line vs red hash), providing compelling evidence for an interaction.[14] In addition, the component PCA hits were examined using CD.
(§2) Figure 6 CD spectra data indicates a ATF3-ATF3W_aeg interaction. […] Spectra were next measured at 20 and 5 °C and again post-thermal denaturation (PM 20 °C to establish reversible that unfolding is fully reversible) at a total peptide concentration of 150 μM and presented as mean residue ellipticity (MRE). […]

[2] = biological target: T1, ATF3 (Homo sapiens, UniProt P18847); assay: CD spectra of ATF3-ATF3W_aeg complex; format: binding; settings: 1:1 stoichiometry with ATF3, 150 μM total peptide, pH 7.0
T1 construct: We focus on the selective targeting of the ATF3 leucine zipper dimerization domain using intracellular peptide library screening; made in house; host or cells: chemical solid-phase peptide synthesis (no expression host)
T1 sequence (P18847 110-143): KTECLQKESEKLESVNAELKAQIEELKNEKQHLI
Description: as §1, §2

[3] = Peptide permeability assay (PAMPA); format: in vitro ADME
Text: Fig S4: CD data for ATF3 interacting with ATF3W-a and ATF3W-eg.
Peptide permeability assay: The PAMPA assay measures permeability across an artificial membrane. This method provides an in vitro model for passive diffusion. Passive diffusion is an important factor in determining transport through the gastrointestinal tract, penetration of the blood brain barrier, as well as transport across cell membranes. Permeability can also be influenced by several other mechanisms including paracellular transport and active uptake or efflux which are not assessed in PAMPA. Therefore, PAMPA provides a simplistic approach to permeability by only measuring a single mechanism. […]
Peptide permeability assay: To evaluate the peptide permeability, the BD™ pre-coated PAMPA plate system was employed. […] The peptide concentrations in both plates were determined by UV spectroscopy after the assembly plate system were incubated at room temperature for 5 hours, and the peptide permeability and mass retention were calculated by using the PAMPA plate system formula which recommended in the manufacture manual. […]
(§3) Serum stability: The quantity of peptide detected by LC-MS is plotted relative to the starting point […]
(§4) Fig S5: Shown are serum stability of ATF3W-aeg. The quantity of peptide detected by LC-MS is plotted […]

[4] = Serum stability; format: in vitro ADME; settings: human serum (Merck), 75 uL of 600 uM stock in 1425 uL serum, 37 °C, 3-day time course; LC-MS; averages of three experimental repeats
Description: TableS1: Shown are peptide permeability assay on ATF3W-aeg. […]
peptide holding on the membrane.
Peptide permeability assay: To evaluate the peptide permeability, the BD™ pre-coated PAMPA plate system was employed. The 300uL of 200uM peptide in PBS buffer were added in the well of the receiver plate, and slowly placed the filter plate with the 200uL PBS buffer per well on the receiver plate. The peptide concentrations in both plates were determined by UV spectroscopy after the assembly plate system were incubated at room temperature for 5 hours, and the peptide permeability and mass retention were calculated by using the PAMPA plate system formula which recommended in the manufacture manual.
Permeability (in unit of cm/s):
Mass retention: 1 - [CD(t)*VD + CA(t)*VA ]/( C0 * VD)
C0 = initial compound concentration in donor well (mM)
CD(t) = compound concentration in donor well at time t (mM)
CA(t) = compound concentration in acceptor well at time t (mM)
VD = donor well volume = 0.3 mL
VA = acceptor well volume = 0.2 mL […]
as §3, §4
The supernatant was analysed by LC-MS, and the peptide was quantified as the sum of the peaks with the two largest intensities1.

## Ac-ELAALEQKAYALKQENAALEKEVAALEQKIAALK-NH2 (N-terminus and C-terminus assumed) [ATF3W_aeg]
[1]; 10 mM potassium phosphate, 100 mM potassium fluoride
  fractional helicity (fH), peptide in isolation: ~38%
[1]
  222/208 ratio, peptide in isolation: 0.76
[2]
  222/208 ratio of ATF3-ATF3W_aeg complex: 0.94
  fractional helicity (fH) of ATF3-ATF3W_aeg complex: ~68%
[3]; BD pre-coated PAMPA plate system, 200uM peptide in PBS, room temperature, 5 hours, UV spectroscopy
  PAMPA mass retention: 5.8%
[3]; category by Log(Permeability) larger than -6, industry standard in BD PAMPA manual
  PAMPA permeability category: high permeability
[4]
  serum stability, peptide quantity relative to starting point: completely degraded
